Measurements: publication PMC2695604 (2009)

Biological target: isoleucyl-tRNA synthetase (IleRS) (Escherichia coli, UniProt P00956)
Test: affinity labeling with saturation kinetics of inactivation
Type: biochemical

Sequence of isoleucyl-tRNA synthetase (IleRS) (P00956 2-938): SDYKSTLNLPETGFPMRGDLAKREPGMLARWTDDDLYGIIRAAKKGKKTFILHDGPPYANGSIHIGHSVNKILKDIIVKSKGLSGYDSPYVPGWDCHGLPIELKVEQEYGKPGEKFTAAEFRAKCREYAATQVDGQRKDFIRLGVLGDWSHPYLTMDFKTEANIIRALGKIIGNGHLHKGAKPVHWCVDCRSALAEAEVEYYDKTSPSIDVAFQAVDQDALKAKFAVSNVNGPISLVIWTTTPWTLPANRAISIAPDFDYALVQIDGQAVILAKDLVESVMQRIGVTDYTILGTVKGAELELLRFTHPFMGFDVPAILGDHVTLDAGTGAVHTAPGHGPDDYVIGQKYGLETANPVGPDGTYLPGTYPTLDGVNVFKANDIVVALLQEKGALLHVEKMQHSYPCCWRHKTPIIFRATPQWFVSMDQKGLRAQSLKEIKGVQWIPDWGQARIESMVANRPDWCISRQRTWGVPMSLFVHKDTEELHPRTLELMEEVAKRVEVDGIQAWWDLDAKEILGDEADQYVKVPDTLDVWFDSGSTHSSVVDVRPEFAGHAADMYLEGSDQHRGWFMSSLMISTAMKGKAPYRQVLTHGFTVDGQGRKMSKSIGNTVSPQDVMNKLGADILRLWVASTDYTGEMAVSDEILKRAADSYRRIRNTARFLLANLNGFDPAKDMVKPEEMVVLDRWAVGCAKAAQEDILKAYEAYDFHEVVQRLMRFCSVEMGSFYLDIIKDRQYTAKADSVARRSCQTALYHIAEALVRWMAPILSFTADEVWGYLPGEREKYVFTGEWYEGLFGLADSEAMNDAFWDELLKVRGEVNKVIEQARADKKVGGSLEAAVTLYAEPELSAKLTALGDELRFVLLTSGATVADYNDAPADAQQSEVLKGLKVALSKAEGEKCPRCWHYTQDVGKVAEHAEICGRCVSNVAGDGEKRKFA

## CC[C@H](C)[C@H](N)C(=O)CBr [IBMK, L-isoleucine bromomethyl ketone]
  KI (inactivation): ~100 µM
